Measurements published in patent EP4488279A1, “SUBSTITUTED HEXAHYDRO-2H-PYRAZINO[1,2-A]PYRAZIN-1(6H)-ONE DERIVATIVES AS ACTIVATORS OF HUMAN CASEINOLYTIC PROTEASE P (HSCLPP)” (Centro Atlantico del Medicamento S.A (Ceamed, S.A), priority 2023, dated 2025).

Columns and labels:
4T1 = test: MTT cell viability assay, 4T1; assay type: cell-based; conditions: Mus musculus; 4T1 cells, 48 H, MTT, average of at least two independent experiments; read-out: IC50 4T1 48 H
Method: This a mouse epithelial breast cancer cell line classified as being triple negative and mimics human breast cancer; stage IV.
Cell viability was assayed by measuring the mitochondrial reduction of the tetrazolium salt 3-(4,5-methyltiazol-2yl)-2,5diphenyl-tetrazolium bromide] (MTT) (Applichen; A2231,0010) [Mosmann T. J Immunol Methods. […] Oncogene. […] Cells were seeded at a density according to their exponential growth phase (normally 1000 to 5000/well). The cells were cultured at 37 °C in the dark in air containing 5% CO2. After 24h either vehicle (0.05% DMSO), or drug, was added to culture medium at the indicated concentrations (10 to 0,01microM). […] The medium was then removed, and the precipitated formazan was solubilized by the addition of DMSO (200 µL).

MDA-MB-231 = test: MTT cell viability assay, MDA-MB-231; assay type: cell-based; conditions: Homo sapiens, MDA-MB-231 cells, 72 H, average of at least two independent experiments
Method: This a human breast cancer cell line derived from a metastatic site from a person.
(§1) Cell viability was assayed by measuring the mitochondrial reduction of the tetrazolium salt 3-(4,5-methyltiazol-2yl)-2,5diphenyl-tetrazolium bromide] (MTT) (Applichen; A2231,0010) [Mosmann T. J Immunol Methods. […] Oncogene. […] Cells were seeded at a density according to their exponential growth phase (normally 1000 to 5000/well). The cells were cultured at 37 °C in the dark in air containing 5% CO2. After 24h either vehicle (0.05% DMSO), or drug, was added to culture medium at the indicated concentrations (10 to 0,01microM). After another 72 h, MTT (0.3 mg/ml) was added to cells, followed by incubation for 2-4h at 37 °C in the dark. The medium was then removed, and the precipitated formazan was solubilized by the addition of DMSO (200 µL).

PANC1 = test: MTT cell viability assay, PANC1; assay type: cell-based; conditions: Homo sapiens, PANC-1, PANC1 cells, 72 H, average of at least two independent experiments
Method: This a human cancer cell line derived from the pancreas of a person.
as §1

Yeast - HsCIpP = test: Yeast growth inhibition screen, yeast without human ClpP (selectivity control); assay type: cell-based; conditions: Saccharomyces cerevisiae; yeast without HsCIpP, 24 h at 25 °C, absorbance at 600 nm; read-out: Yeast - HsCIpP GI50
Method: (§2) These cells contain mutants in YRS1, YRR1, PDR1 and PDR3 genes, which are involved in polydrug and pleiotropic resistance networks.
(§3) The yeast (both HsCpIP+ and HsCIpP-) are incubated in petri dishes with YPD (Yeast extract peptone dextrose) at 25 °C overnight, after which a colony is isolated, suspended in a flask with fresh YPD and incubating again under the same conditions but with agitation. […] 100 µl of this solution was then placed into the appropriated wells of a standard 96-well plate. Stock solutions (DMSO, 10 mM) of the compounds to be tested are diluted in YPD to 2X of their final concentrations to be tested, and 100 µl added to the appropriate wells. 100 µl of YPD was added to wells designated as the negative control wells, while ONC206 (0.5 µM) was used as the positive control. Once all compounds were added to the plate, an initial T = 0 absorbance value was recorded at 600 Nm. The plate was then incubated at 25 °C with gentle shaking for 24 h. The plates can either be read at multiple time points using a TECAN Spark® Multimode Microplate Reader, or at the end of the experiment using a standard spectrophotometer.
(§4) Table 2: Growth inhibition (GI50) values for compounds of the present invention in yeast containing HsCIpP, and yeast without HsCIpP.

U2 OS = test: MTT cell viability assay, U2 OS; assay type: cell-based; conditions: Homo sapiens, U2OS, U2 OS cells, 72 H, average of at least two independent experiments
Method: U2 OS [American Type Culture Collection (ATCC) reference number HTB-96]. This is a human bone cancer (a moderately differentiated sarcoma) cell derived from an osteosarcoma patient.
as §1

DU-145 = test: MTT cell viability assay, DU-145; assay type: cell-based; conditions: Homo sapiens, DU-145 cells, 72 H, average of at least two independent experiments
Method: This a human prostate cancer cell line derived from a metastatic site (brain) of a person.
as §1

4T1 tumours = test: 4T1 syngeneic tumour model in immunocompetent mice; assay type: in vivo, Balb/c mice; conditions: 25 mg/kg PO three times per week
Method: 4T1 syngeneic tumours were induced in female immunocompetent Balb/c mice by inject 12500 4T1 cells (passage# <7, in PBS, 100 µL) into their left inguinal mammary fat pad. Once tumour volumes [measure using the formula V = 0.5(length x width^2)] reached […], treatment with either vehicle, or compound in vehicle, was began. Compounds were administered orally (PO) at a constant dose (typically 25 mg/kg) three times per week (Monday, Wednesday and Friday). Compounds (as ether their free base or salt) were formulated as either solutions or homogenous suspensions in a vehicle of 10% Cremaphor RH40 + 90% saline for injection. Formulations were prepared at concentrations (mg/mL) = Dose/5 (e.g. a dose of 25 mg/Kg used a formulation of 5 mg/ml). Once treatments began, tumour volumes and body weights were recorded on each treatment day. Treatments were continued until 25-28 days after first treatment day, after which the mice were sacrificed. Animals whose tumour reached […] during the experiment were also sacrificed.

Yeast + HsCIpP = test: Yeast growth inhibition screen, yeast expressing human ClpP; assay type: cell-based; conditions: Saccharomyces cerevisiae, 24 h, read-out: Yeast + HsCIpP GI50
Source text: This technique allows to directionally assemble several DNA fragments into one single DNA piece. It is based on plasmid libraries that share the same DNA backbone but differ in the type of the insert. The assembly of the final cassette is based on the "Golden Gate Cloning" method. Human CLPP gene sequence (codon-optimized for yeast translation) was amplified with well-designed primers from a plasmid kindly provided by Dr. Michael David Tyers (University of Montreal). Once amplified, a MoClo reaction was performed to obtain the final integrative cassette. This cassette was composed as follows: • Type 1: ConLS 3' connector. • Type 2: TDH3 gene promoter (strong and constitutive expression). • Type 3: Amplified human CLPP gene. • Type 4: ADH1 gene terminator. • Type 5: ConR1 5' connector. • Type 6: LEU2 gene as selectable marker for yeast. • Type 7: 3' HO gene homology sequence for yeast integration. • Type 8a: KanR-ColE1 sequence for bacterial amplification and antibiotic resistance. • Type 8b: 5' HO gene homology sequence for yeast integration.
Digestion patterns with several restriction enzymes were carried out to confirm the success of the MoClo system. An extra restriction enzyme reaction (Notl) was performed to linearize the DNA fragment and deplete the bacterial part.
as §2
Yeast cells were transformed with the linearized cassette and transformant colonies were selected on minimum media without leucine. Independent clones were checked by PCR and positive ones were stored at -80 °C until use.
as §3, §4

## O=C1C2CN(Cc3cccc(F)c3)CCN2CCN1Cc1cccc(Cl)c1 (stereo not drawn) [Compound 4]
4T1
  IC50: 330 nM
MDA-MB-231
  IC50: 450 nM
PANC1
  IC50: 335 nM
Yeast - HsCIpP
  GI50: > 10000 nM
U2 OS
  IC50: 500 nM
DU-145
  IC50: 850 nM
4T1 tumours; 4T1 tumour-bearing Balb/c mice, during the experimental period
  changes in body weights: no significant changes
4T1 tumours; established 4T1 tumours, female Balb/c mice, versus vehicle, p < 0.01
  Tumour growth reduced: 50%
Yeast + HsCIpP
  GI50: 210 nM
